According to PMC11435217, “In Vitro Studies of Genistein Lipophilic Derivatives as Potential UV Radiation Protectors” (Pharmaceuticals, 2024):
Where two headings read alike, the source gives them in different places.

What was measured:
[1] = system: NHDF (normal human dermal fibroblasts); assay: Determination of EC50 values, MTS assay, NHDF; format: cell-based; settings: read-out: EC50 (±SE)
Method: (§1) NHDFs were purchased from Lonza Group Ltd.—Lonza Verviers (Verviers, Belgium), and the human malignant melanoma (Me45) cell line was obtained from the Maria Skłodowska-Curie Memorial Cancer Center and National Institute of Oncology Branch Gliwice, Poland. […] During the culturing periods, cells were passaged before confluency reached 80% in culture flasks and washed regularly with PBS.
(§2) The EC50 values of genistein and its derivatives for both cell lines were determined using the MTS assay (Cell Titer 96 AQueous One Solution Cell Proliferation Assay, Promega, Madison, WI, USA). Cells were seeded in 96-well plates (5 × 10^3 cells/well) and incubated for 24 h at 37 °C in 5% CO2. Subsequently, the cells were treated with twelve concentrations of each compound ranging from 1–100 µM for 48 h at 37 °C in 5% CO2. Afterwards, the medium, including the investigated compounds, was removed from all wells and replaced with PBS. In total, 20 µL of MTS was added to each well. Plates were then incubated for 2 h at 37 °C in 5% CO2. The absorbance was measured at λ = 490 nm using an Epoch microplate reader (BioTek, Winooski, VT, USA). EC50 values were calculated using Matlab software (Matlab R2022a, MathWorks, Natick, MA, USA).

[2] = system: Me45 (human malignant melanoma cell line); assay: Determination of EC50 values, MTS assay, Me45; format: cell-based; settings: read-out: EC50 (±SE)
Method: as §1, §2

Lipophilicity (Log P) = format: physicochemical
Text: Table 2 Genistein and its derivatives investigated in the study. | column: Log P

[3] = Protective potential against UV irradiation, MTS assay, Me45; format: cell-based; settings: human
Method: Cells from each cell line were seeded in three groups (0, 24, and 48 h) in 96-well plates (5 × 10^3 cells/well) and incubated for 24 h at 37 °C in 5% CO2. Afterwards, the medium in all wells was removed, and cells were treated with 5 µM of genistein, 4′-L-Gen, W-Bn-Gen, or W5-Gen. The chemicals added to the 0 h time point plates were dissolved in PBS. DMEM was used to prepare the chemical solutions for the 24- and 48-h plates.
After incubation, half of the wells on each plate were irradiated with UVC 2 kJ/m^2 in a Crosslinker CL-1000 UV (UVP) device (Ultra-Violet Products Ltd., Cambridge, UK). The MTS assay was performed immediately after irradiation for 0 h plates and after 24 and 48 h of incubation for the other two time points. Before conducting the MTS test, the medium in the 24 and 48 h plates was discarded and replaced with PBS.

Me45 cells [4] = assay: Cell cycle analysis (flow cytometry, PI), Me45; format: cell-based, human; settings: 5 µM, 48 h, not exposed to UV
Method: (§3) Cells from both cell lines were seeded in 12-well plates (2.5 × 10^4 cells/well) and incubated for 24 h at 37 °C in 5% CO2. The medium in the wells was replaced with fresh DMEM. Cells were treated with 5 µM of genistein, 4′-L-Gen, W5-Gen, or WBn-Gen for 48 h. Medium containing the test substances was removed, and the cells were collected by trypsinization (followed by neutralization of trypsin with medium) in Eppendorf tubes. Tubes were centrifuged (2000 rpm, 3 min), and the supernatant was removed. Subsequently, the fixation of cells in frozen 96% ethanol took place. The ethanol was removed, and cells were washed twice in PBS. Cells were suspended in tubes using 50 µL of […] RNase and then incubated for 15 min at room temperature. Cells were stained with […] propidium iodide solution in PBS and incubated for 20 min at room temperature. Directly before flow cytometry analysis, cells were agitated on a vortex mixer. Cell cycle analysis was performed using a BD FACS Canto flow cytometer, which counted 10,000 cells from every probe. The number of cells in each cell cycle phase was counted by measuring the […] intensity using Diva software (Bd FACSDiva v9.0, Becton Dickinson, Franklin Lakes, NJ, USA).

NHDFs [5] = assay: Genotoxicity, micronucleus (MN) assay, NHDF; format: cell-based, human; settings: 48 h, 5 µM
Method: (§4) Both cell types were seeded in 6-well plates (2.5 × 10^4 cells/well) and incubated for 24 h at 37 °C in 5% CO2. After incubation, the medium in the wells was changed to 5 µM solutions of genistein, 4′-L-Gen, W-Bn-Gen, or W5-Gen in DMEM and incubated for 1 h at 37 °C in 5% CO2. Half of the treated cells were irradiated, as described above. Afterwards, all the cells were treated with […] cytochalasin B and incubated for 48 h at 37 °C in 5% CO2. Subsequently, cells from each well were trypsinized, washed twice in PBS, and mixed with frosted (−20 °C) Carnoy’s solution (methanol: acetic acid, v/v 3:1). After 2 h, 50 µL of each suspension was placed on a microscopic slide and dried. Before microscopic analysis, slides were stained with 2 µg/mL DAPI (dissolved in DMSO) and covered with cover glasses. Slides were observed using a fluorescent microscope (Zeiss Axio Imager. M1 with EC Plan- NEOFLUAR 40× objective, Zeiss, Oberkochen, Germany). A total of 500 cells on each slide were counted, taking into account binucleated, binucleated with MN, mononucleated, and apoptotic cells. The NDI was calculated using a modified method by Eastmond and Tucker (1989) according to the following Equation (2):(2) NDI=MNu+2(Bnu+BNuMN)/∑cells where MNu is the number of cells with one nucleus, BNu is the number of binucleated cells, and BNuMN is the number of binucleated cells with MN.

NHDFs [6] = assay: Cell cycle analysis (flow cytometry, PI), NHDF; format: cell-based, human; settings: 5 µM, 48 h, not exposed to UV
Method: as §3

Me45 cells [7] = assay: Genotoxicity, micronucleus (MN) assay, Me45; format: cell-based, human; settings: 5 µM, 48 h, exposed and not exposed to UV radiation
Method: as §4

[8] = system: estrogen receptors ERα and ERβ; settings: cited from earlier work
[9] = 48 h treatment, 1–100 µM, concentration causing 50% toxicity
[10] = Me45, 48 h treatment, 1–100 µM, concentration causing 50% toxicity

Row | logP (Lipophilicity (Log P)) | SMILES | EC50 ([1]; 48 h) [µM] | EC50 ([2]; 48 h) [µM] | mortality at 0 h, 5 µM [3] [%] | viability at 48 h, 5 µM ([3]; Me45, 5 µM, after 48 h, both exposed and not exposed to UV radiation, read-out: viability of treated cells much lower than in the control samples) [%] | suppression of the G1 phase, ranking (in words) (Me45 cells [4]) | EC50 [1, 9] [µM] | EC50 [2, 10] [µM] | DNA damage (percentage of binucleated cells with MN) (NHDFs [5]; human) | suppression of the cell cycle in the G2/M phase, cells compared to the controls (NHDFs [6]) [%] | logP (Lipophilicity (Log P); method not stated, read-out: Log P) | mortality at 0 h, 5 µM ([3]; Me45, 5 µM, shortest incubation (first time point, before the 24 h reading), read-out: mortality compared to control untreated cells) [%] | effect on number of cells with MN (in words) (NHDFs [5]; NHDF) | effect on number of cells with MN (in words) (Me45 cells [7]) | binding to ERβ versus ERα, times more strongly [8]
1 | 4.04 | O=C(OCc1ccccc1)Oc1cc(O)c2c(=O)c(-c3ccc(O)cc3)coc2c1 [WBn-Gen, bezyl-7-O-genistein carbonate] | – | – | – | – | – | 6 | 71.2 | 10.5–11% | 6 | – | – | – | – | –
2 | – | O=c1c(-c2ccc(O)cc2)coc2cc(O)cc(O)c12 [Gen, Genistein] | 8.6 | 78.2 | – | – | strongest effect | – | – | – | – | 1.74 | 50 | decreased the number of cells with MN | increases the number of cells with MN | 20–30 times
3 | 3.96 | CCCCCOC(=O)Oc1cc(O)c2c(=O)c(-c3ccc(O)cc3)coc2c1 [Compound W5-Gen, n-pentyl-7-O-genistein carbonate] | – | – | – | – | – | 5.6 | 92.2 | – | – | – | – | – | – | –

Row | SMILES | logP (Lipophilicity (Log P)) | EC50 ([1]; 48 h) [µM] | EC50 ([2]; 48 h) [µM] | mortality at 0 h, 5 µM [3] [%] | viability at 48 h, 5 µM ([3]; Me45, 5 µM, after 48 h, both exposed and not exposed to UV radiation, read-out: viability of treated cells much lower than in the control samples) [%] | suppression of the G1 phase, ranking (in words) (Me45 cells [4]) | EC50 [1, 9] [µM] | EC50 [2, 10] [µM] | DNA damage (percentage of binucleated cells with MN) (NHDFs [5]; human) | suppression of the cell cycle in the G2/M phase, cells compared to the controls (NHDFs [6]) [%] | logP (Lipophilicity (Log P); method not stated, read-out: Log P) | mortality at 0 h, 5 µM ([3]; Me45, 5 µM, shortest incubation (first time point, before the 24 h reading), read-out: mortality compared to control untreated cells) [%] | effect on number of cells with MN (in words) (NHDFs [5]; NHDF) | effect on number of cells with MN (in words) (Me45 cells [7]) | binding to ERβ versus ERα, times more strongly [8]
4 | CCCCCCCCCCCC(=O)Oc1ccc(-c2coc3cc(O)cc(O)c3c2=O)cc1 [4′-L-Gen, 4′-genistein dodecanate] | 5.71 | 6.5 | 60.5 | ~10 | ~50 | weakest effect | – | – | – | – | – | – | – | – | –
